Experimental data from ChEMBL document CHEMBL5728913, “Indoleamine 2,3-dioxygenase inhibitor, method for preparation and use thereof” (2022).
Several values for one entry are separate records, joined by “and”; a condition that tells them apart may be missing. Equal entries are not always repeated.

The compounds below were run against Indoleamine 2,3-dioxygenase 1 (Homo sapiens, UniProt P14902) (assay: Inhibitory Activity Assay: 1. […] Reagent Preparation100 mM PBS:100 mM disodium hydrogen phosphate and 100 mM potassium dihydrogen phosphate mixed in a ratio of 3:5, pH 6.5IDO1 assay buffer:100 mM PBS containing 400 μM L-tryptophan, 20 mM ascorbate, 20 μM methylene blue and 1000 U/ml catalase, pH 6.530% trichloroacetic acidddH2 O solution of 30% trichloroacetic acidEhrlich reagent1% (w/v) diluted solution of 4-(dimethylamino) benzaldehyde compoundAll compounds were dissolved with DMSO. During the assay, each compound was diluted to a concentration as needed. The compound of each concentration was added to multi-wells, and the final concentration of DMSO was controlled at 1%.3. Test Methoda.) the reaction mixture was prepared by adding 50 nM IDO1 and the desired concentration of the test compound to 100 μL of IDO1 assay buffer. IDO1 and assay buffer need to be preheated to 37° C.b.) The mixture was reacted in a constant temperature water tank at 37° C. for 30 minutes.c.) 50 μL of 30% trichloroacetic acid was added.d.) The above mixture was reacted in a constant temperature water tank at 52° C. for 30 minutes.e.) The reaction mixture was centrifuged at 12000 g for 10 minutes at room temperature.f.) 100 μL of the obtained supernatant and 100 μL of Ehrlich reagent were mixed.g.) the absorbance at 480 nm was measured using an M5 microplate reader.4. Data AnalysisInhibition rate=(ODpostive−ODsample)/(ODpositive−ODnegative)*100%5. Results and Discussion).
Sequence of Indoleamine 2,3-dioxygenase 1 (P14902 whole entry): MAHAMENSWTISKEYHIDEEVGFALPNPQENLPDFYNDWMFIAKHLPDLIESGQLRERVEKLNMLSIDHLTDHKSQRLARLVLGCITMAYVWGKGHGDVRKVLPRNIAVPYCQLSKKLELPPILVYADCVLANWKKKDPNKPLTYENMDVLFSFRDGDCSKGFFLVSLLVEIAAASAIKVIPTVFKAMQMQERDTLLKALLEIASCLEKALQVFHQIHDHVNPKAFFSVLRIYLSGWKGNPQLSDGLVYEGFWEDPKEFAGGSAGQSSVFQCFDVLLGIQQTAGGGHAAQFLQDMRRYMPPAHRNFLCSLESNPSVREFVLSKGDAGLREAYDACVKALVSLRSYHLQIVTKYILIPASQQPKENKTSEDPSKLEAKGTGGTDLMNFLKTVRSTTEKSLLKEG
For `O=C(Nc1ccccc1)ONc1nonc1/C(=N/O)Nc1ccc(F)c(Br)c1`, the IC50 was 48 nM.
Work on `NS(=O)(=O)NCC1(CONc2nonc2/C(=N/O)Nc2ccc(F)c(Br)c2)CC1` yielded an IC50 of 82 nM.
Work on `NC(=O)C(N)CCONc1nonc1/C(=N/O)Nc1ccc(F)c(Br)c1` (stereo not drawn) yielded an IC50 of 85 nM.
`O=C(NCCONc1nonc1/C(=N/O)Nc1ccc(F)c(Br)c1)NC1CCCC1` was tested, and the IC50 was 69 nM.
Work on `CCCCONc1nonc1/C(=N/O)Nc1ccc(F)c(Br)c1` yielded an IC50 of 80 nM.
With `O/N=C(\Nc1ccc(F)c(Br)c1)c1nonc1NOC1CCCNC1` (stereo not drawn) the IC50 was 80 nM.
Work on `CC(=O)ONc1nonc1/C(=N/O)Nc1ccc(F)c(Br)c1` yielded an IC50 of 92 nM.
`CSNc1nonc1/C(=N/O)Nc1ccc(F)c(Cl)c1` was tested, and the IC50 was 53 nM.
Work on `O=C(NCCONc1nonc1/C(=N/O)Nc1ccc(F)c(Br)c1)Nc1cc(F)cc(F)c1` yielded an IC50 of 12 nM.
For `O=C(NCCOCCONc1nonc1/C(=N/O)Nc1ccc(F)c(Br)c1)Nc1cc(F)cc(F)c1`, the IC50 was 72 nM.
In the case of `O=C1C=CC(=O)N1CCONc1nonc1/C(=N/O)Nc1ccc(F)c(Cl)c1`, the IC50 is reported as 32 nM and 58 nM.
`O/N=C(\Nc1ccc(F)c(Br)c1)c1nonc1NO` gave an IC50 of 125 nM.
In the case of `CC(C)OC(=O)NCCONc1nonc1/C(=N/O)Nc1ccc(F)c(Br)c1`, the IC50 is reported as 36 nM and 28 nM.
`O/N=C(\Nc1ccc(F)c(Br)c1)c1nonc1NOCCN1CCCC1` showed an IC50 of 108 nM.
`O=C(ONc1nonc1/C(=N/O)Nc1ccc(F)c(Br)c1)c1ccccc1` showed an IC50 of 65 nM.
`NS(=O)(=O)N1CCC(ONc2nonc2/C(=N/O)Nc2ccc(F)c(Br)c2)CC1` gave an IC50 of 65 nM.
Work on `CC(=O)NCCONc1nonc1/C(=N/O)Nc1ccc(F)c(Br)c1` yielded an IC50 of 162 nM.
With `O/N=C(\Nc1ccc(F)c(Br)c1)c1nonc1NOCCN1CCOCC1` the IC50 was 43 nM and 38 nM.
For `NC1CCC(ONc2nonc2/C(=N/O)Nc2ccc(F)c(Br)c2)CC1` (stereo not drawn), the IC50 was 184 nM.
With `NCCONc1nonc1/C(=N/O)Nc1ccc(F)c(Br)c1` the IC50 was 35 nM and 43 nM.
`O=C1CCC(=O)N1CCONc1nonc1/C(=N/O)Nc1ccc(F)c(Br)c1` was tested, and the IC50 was 96 nM.
With `O/N=C(\Nc1ccc(F)c(Br)c1)c1nonc1NOCCOc1ccccc1` the IC50 was 120 nM.
For `O/N=C(\Nc1ccc(F)c(Cl)c1)c1nonc1NS`, the IC50 was 104 nM.
